From PMC6305410, “High-Throughput Screening for Bacterial Glycosyltransferase Inhibitors” (Frontiers in Cellular and Infection Microbiology, 2018)

Biological target: T1, NleB1 (Escherichia coli, UniProt Q8XBX8)
T1 construct: GST-EHEC-NleB1 in pET42a (GST/His tagged), expressed in E. coli BL21 (DE3), nickel purified; some tag cleavage noted
Conditions: inhibitor; for % NleB1 inhibition (µM compound) / 10: 10 µM; for % NleB1 inhibition (µM compound) / 20: 20 µM; for % NleB1 inhibition (µM compound) / 40: 40 µM; for % NleB1 inhibition (µM compound) / 80: 80 µM; for % NleB1 inhibition (µM compound) / 160: 160 µM

Row | Structure (SMILES) | % NleB1 inhibition (µM compound) / 10 [%] | % NleB1 inhibition (µM compound) / 20 [%] | % NleB1 inhibition (µM compound) / 40 [%] | % NleB1 inhibition (µM compound) / 80 [%] | % NleB1 inhibition (µM compound) / 160 [%]
1 | Cc1cccc(C)c1OCc1cn(CC(=O)c2ccc(O)cc2)nn1 [KUC104090N] | 36.8 | 44.9 | 53.2 | 69.2 | 85.8
2 | O=C(Cn1cc(COc2c(F)c(F)cc(F)c2F)nn1)c1ccc(O)cc1 [KUC104092N] | 39.5 | 42.1 | 57.8 | 67.2 | 80.6
3 | CCCC(=O)c1ccc(OCc2cn(CC(=O)c3ccc(O)cc3)nn2)cc1 [KUC104099N] | 32.9 | 42.2 | 45.2 | 62.5 | 77.5
4 | CC(=O)Nc1ccc(OCc2cn(CC(=O)c3ccc(O)cc3)nn2)cc1 [KUC104101N] | 48.1 | 59.3 | 74.6 | 91.3 | 98.1
5 | CCC(=O)c1ccc(OCc2cn(CC(=O)c3ccc(O)cc3)nn2)cc1 [KUC104108N] | 21.0 | 35.3 | 49.4 | 67.7 | 88.0
6 | COc1ccc(OCc2cn(CC(=O)c3ccc(O)cc3)nn2)cc1 [KUC104109N] | 35.4 | 43.6 | 53.9 | 67.3 | 82.9
7 | O=Cc1cccc(OCc2cn(CC(=O)c3ccc(O)cc3)nn2)c1 [KUC104114N] | 31.8 | 42.3 | 57.2 | 76.5 | 92.0
8 | COc1ccc2cc([C@H](C)C(=O)OCc3cn(CC(=O)c4ccc(O)cc4)nn3)ccc2c1 [KUC104115N] | 40.2 | 44.0 | 48.2 | 61.4 | 78.6
9 | CC1C(=O)N(Cc2cn(CCC3OCCCO3)nn2)CCS(=O)(=O)N1Cc1ccc(-c2cccc(N(C)C)c2)cc1 (centres unmarked) [KUC104889N] | 26.6 | 28.9 | 29.5 | 35.9 | 44.5
10 | CCCCCC(=O)N1C[C@H](n2cc(COC(=O)c3ccccc3)nn2)[C@@H](O)C[C@@H]1c1ccc(Cl)cc1 [KUC105040N] | 9.1 | 14.5 | 18.9 | 40.4 | 50.7
11 | COCOCCn1cc(CN2CCS(=O)(=O)N(Cc3ccc(-c4ccc(OC)nc4)cc3)C(C(C)C)C2=O)nn1 (centres unmarked) [KUC105133N] | 30.4 | 40.4 | 45.5 | 62.2 | 75.8
12 | COc1ccc(-c2ccc(CN3C(C(C)C)C(=O)N(Cc4cn(CCC5OCCO5)nn4)CCS3(=O)=O)cc2)cn1 (centres unmarked) [KUC105137N] | 13.7 | 25.7 | 41.5 | 64.5 | 79.7
13 | COCOCCn1cc(CN2CCS(=O)(=O)N(Cc3ccc(-c4ccc(F)nc4)cc3)C(CC(C)C)C2=O)nn1 (centres unmarked) [KUC105149N] | 34.4 | 38.8 | 42.6 | 55.9 | 69.5
14 | CC(C)CC1C(=O)N(Cc2cn(CCC3OCCCO3)nn2)CCS(=O)(=O)N1Cc1ccc(-c2ccc(F)nc2)cc1 (centres unmarked) [KUC105151N] | 0.6 | 15.1 | 31.9 | 50.8 | 53.0
15 | CCCCN1CC(COCc2ccccc2)Oc2cccc(Oc3ccc(F)cc3OC)c2S1(=O)=O (centres unmarked) [KUC106008N] | 21.4 | 22.4 | 20.7 | 31.6 | 55.9
16 | O=C(c1ccc([N+](=O)[O-])cc1)N1[C@H](COCc2ccccc2)C=CS1(=O)=O [KUC107029N] | 30.6 | 41.5 | 43.4 | 48.6 | 43.4
17 | CN(C)CCN1CCN(C2CN(Cc3cn(Cc4ccc(F)cc4)nn3)S(=O)(=O)C2)CC1 (centres unmarked) [KUC108117N] | 5.6 | 23.7 | 25.1 | 21.8 | 21.8
18 | CN1CCC(N2CCN(C3CN(Cc4cn(Cc5cccc(Cl)c5)nn4)S(=O)(=O)C3)CC2)CC1 (centres unmarked) [KUC108133N] | 4.1 | 18.2 | 22.3 | 18.0 | 18.2
19 | O=S1(=O)CC(N2CCN(Cc3ccccc3F)CC2)CN1Cc1cn(Cc2cccc(Cl)c2)nn1 (centres unmarked) [KUC108236N] | 13.5 | 26.7 | 13.1 | 12.7 | 18.4
20 | C[C@H](c1ccccc1)N1C[C@@H](COCc2ccccc2)Oc2cc(N3CC[C@@H](O)C3)ccc2S1(=O)=O [KUC108511N] | 33.8 | 33.0 | 29.9 | 49.8 | 63.7
21 | Cc1ccc2c(c1)C1CS(=O)(=O)N(C3CCCC3)C(=O)N1C2 (centres unmarked) [KUC109525N] | 26.3 | 31.5 | 20.9 | 19.5 | 29.3
22 | COC(=O)[C@H](C(C)C)N1Cc2nnn(Cc3ccccc3)c2-c2ccccc2S1(=O)=O [KUC110604N] | 4.8 | 15.1 | 17.9 | 21.1 | 17.9
23 | C[C@H]1CC[C@]2(CCC(=O)N2CCCOC(=O)c2ccccc2)CC1 [KUC110967N] | 45.2 | 53.8 | 62.0 | 71.4 | 78.5
24 | Cc1ccc([C@H]2CC[C@]3(CCC(=O)N3CCOC(=O)Nc3cccc(C#N)c3)CC2)cc1 [KUC111012N] | 17.3 | 25.1 | 22.4 | 20.7 | 20.5
25 | C[C@@H]1CCCN1c1ccc2c(c1)O[C@@H]1CCN(C1)S2(=O)=O [KUC111139N] | 32.7 | 34.1 | 35.7 | 38.7 | 40.7
26 | O=C(c1ccc(F)cc1)N1CCCC2(CC(c3cccc(Cl)c3)=CO2)C1 (centres unmarked) [KUC111570N] | 3.2 | 3.8 | 5.2 | 24.2 | 42.6
27 | CCC[C@H]1[C@@H](OC(=O)NCc2ccc(OC)cc2)CC[C@@]23CCCN2C(=O)CCC[C@@H]13 [KUC112136N] | 15.7 | 22.0 | 20.8 | 28.5 | 30.5
28 | O=C(Oc1ccc([N+](=O)[O-])cc1)O[C@H]1CC[C@@]23CCCN2C(=O)CCC[C@H]3[C@H]1Cc1ccccc1 [KUC112275N] | 2.6 | 5.6 | 11.0 | 24.2 | 34.9
